Values of other authors as cited in patent publication US11078226B2, “Fluorogenic glycosidase substrate and associated detection method” (ECOLE NORMALE SUPERIEURE DE LYON, priority 2016, dated 2021).

Settings: cited from earlier work

For `O=c1[nH]c(-c2cc(Cl)ccc2O)nc2ccc(Cl)cc12` [dichloro-HPQ, 6-chloro-2-(5-chloro-2-hydroxyphenyl)-4(3H)-quinazolinone], the “solubility in aqueous/physiological media” value is listed as “completely insoluble”.
